These compounds were tested against human SSTR2 (Homo sapiens (Human), UniProt P30874) (assay: Human SSTR2 intracellular cAMP functional assay for agonists (HTRF)). Details: not given.
Chain of human SSTR2 (P30874 whole entry): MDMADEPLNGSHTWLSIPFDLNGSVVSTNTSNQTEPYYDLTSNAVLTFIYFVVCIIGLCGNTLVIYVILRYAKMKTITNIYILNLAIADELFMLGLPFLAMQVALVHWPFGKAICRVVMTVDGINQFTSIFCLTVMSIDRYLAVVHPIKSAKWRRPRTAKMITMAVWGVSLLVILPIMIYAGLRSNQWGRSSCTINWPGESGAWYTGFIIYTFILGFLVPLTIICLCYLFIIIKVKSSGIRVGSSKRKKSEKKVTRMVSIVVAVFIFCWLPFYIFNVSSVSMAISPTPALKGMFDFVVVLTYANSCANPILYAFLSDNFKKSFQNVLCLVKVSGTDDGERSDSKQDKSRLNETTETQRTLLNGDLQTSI
Type: cell-based
Outline: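 Cells bearing human SSTR2 exposed to compound for 20 minutes at 37 °C; after lysis, cAMP measured by time-resolved fluorescence (HTRF) and converted via a standard curve. EC50 calculated from cAMP versus compound concentration.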
`CON=Cc1cc(-c2ccc3ncc(-c4cc(C)cc(F)c4)c(N4CCC(N)CC4)c3c2)ccc1O` [2-213, 4-[4-(4-aminopiperidin-1-yl)-3-(3-fluoro-5-methylphenyl)quinolin-6-yl]-2-[(methoxyimino)methyl]phenol] was tested, and the EC50 was 10 to 100 nM.
Compound `CCC(CO)NCC1CN(c2c(-c3cc(C)cc(F)c3)cnc3ccc(-c4cc(F)cc(C#N)c4O)cc23)C1` (centres unmarked) [2-41, 5-fluoro-3-[3-(3-fluoro-5-methylphenyl)-4-(3-{[(1-hydroxybutan-2-yl)amino]methyl}azetidin-1-yl)quinolin-6-yl]-2-hydroxybenzonitrile] has an EC50 of 10 to 100 nM.
With `CCCNCC1CN(c2c(-c3cc(C)cc(F)c3)cnc3ccc(-c4cc(F)c(O)c(F)c4)cc23)C1` [2-52, 2,6-difluoro-4-[3-(3-fluoro-5-methylphenyl)-4-{3-[(propylamino)methyl]azetidin-1-yl}quinolin-6-yl]phenol] the EC50 was 10 to 100 nM.
`CONC(=O)Nc1nc(C)ccc1-c1ccc2ncc(-c3cc(C)cc(F)c3)c(N3CCC(N)CC3)c2c1` [2-239, 1-{3-[4-(4-aminopiperidin-1-yl)-3-(3-fluoro-5-methylphenyl)quinolin-6-yl]-6-methylpyridin-2-yl}-3-methoxyurea] showed an EC50 of 10 to 100 nM.

Same assay, conditions: CHO-K1 cells stably expressing human SSTR2; NKH477-stimulated cAMP; read-out: EC50 (inhibition of cAMP activities via human SST2R)
In the case of `Cc1cc(F)cc(-c2cnc3ccc(-c4cc(F)cc(C#N)c4O)cc3c2N2CC(CN3CCCC3)C2)c1` [2-30, 5-fluoro-3-[3-(3-fluoro-5-methyl-phenyl)-4-(3-pyrrolidin-1-ylmethyl-azetidin-1-yl)-quinolin-6-yl]-2-hydroxy-benzonitrile], the EC50 is reported as under 10 nM.
Work on `N#Cc1cccc(-c2ccc3nnc(-c4cc(Cl)cc(Cl)c4)c(N4CCC(N)CC4)c3c2)c1O` [1-21, 3-[4-(4-aminopiperidin-1-yl)-3-(3,5-dichlorophenyl)cinnolin-6-yl]-2-hydroxybenzonitrile] yielded an EC50 of under 10 nM.
Work on `Nc1c(-c2ccc3ncc(-c4cc(F)cc(F)c4)c(N4CC[C@H]5NCCO[C@@H]5C4)c3c2)cnn1C1COC1` (relative stereo) [2-268, 4-{4-[trans-octahydro-1H-pyrido[3,4-b]morpholin-6-yl]-3-(3,5-difluorophenyl)quinolin-6-yl}-1-(oxetan-3-yl)-1H-pyrazol-5-amine] yielded an EC50 of 10 to 100 nM.
In the case of `NC1CCN(c2c(-c3cc(F)cc(F)c3)cnc3ccc(-c4cncc(F)c4C=NO)cc23)CC1` [2-152, 1-[3-(3,5-difluorophenyl)-6-{5-fluoro-4-[(hydroxyimino)methyl]pyridin-3-yl}quinolin-4-yl]piperidin-4-amine], the EC50 is reported as under 10 nM.
`CON(C)C(=O)Nc1c(C#N)cc(F)c(F)c1-c1ccc2ncc(-c3cc(C)cc(F)c3)c(N3CCC(N)CC3)c2c1` [2-206, 1-{2-[4-(4-aminopiperidin-1-yl)-3-(3-fluoro-5-methylphenyl)quinolin-6-yl]-6-cyano-3,4-difluorophenyl}-3-methoxy-3-methylurea] was tested, and the EC50 was under 10 nM.
In the case of `Nc1cccnc1-c1ccc2ncc(-c3cc(F)cc(F)c3)c(N3CC[C@H]4NCCO[C@@H]4C3)c2c1` (relative stereo) [2-283, 2-{4-[trans-octahydro-1H-pyrido[3,4-b]morpholin-6-yl]-3-(3,5-difluorophenyl)quinolin-6-yl}pyridin-3-amine], the EC50 is reported as 10 to 100 nM.
For `O=c1[nH]c2cc(-c3ccc4ncc(-c5cc(F)cc(F)c5)c(N5CC[C@H]6NCCO[C@@H]6C5)c4c3)cc(F)c2[nH]1` [2-80, trans-6-[3-(3,5-difluorophenyl)-4-{octahydro-1H-pyrido[3,4-b]morpholin-6-yl}quinolin-6-yl]-4-fluoro-2,3-dihydro-1H-1,3-benzodiazol-2-one], the EC50 was under 10 nM.
With `NC1CCN(c2c(-c3cc(F)cc(F)c3)cnc3ccc(-c4ccccc4O)cc23)CC1` [2-6, 2-[4-(4-aminopiperidin-1-yl)-3-(3,5-difluorophenyl)quinolin-6-yl]phenol] the EC50 was under 10 nM.
Compound `Cc1ccc(F)c(C=NO)c1-c1ccc2ncc(-c3cc(F)cc(F)c3)c(N3CCC(N)CC3)c2c1` [2-202, 1-[3-(3,5-difluorophenyl)-6-{3-fluoro-2-[(hydroxyimino)methyl]-6-methylphenyl}quinolin-4-yl]piperidin-4-amine] has an EC50 of under 10 nM.
With `COCCNc1c(C#N)cncc1-c1ccc2ncc(-c3cc(F)cc(F)c3)c(N3CC[C@H]4NCCO[C@@H]4C3)c2c1` (relative stereo) [2-252, 5-{4-[trans-octahydro-1H-pyrido[3,4-b]morpholin-6-yl]-3-(3,5-difluorophenyl)quinolin-6-yl}-4-[(2-methoxyethyl)amino]pyridine-3-carbonitrile] the EC50 was under 10 nM.
In the case of `Cc1cc(F)cc(-c2cnc3ccc(-c4cncc(C#N)c4N)cc3c2N2CCC(N)CC2)c1` [2-187, 4-amino-5-[4-(4-aminopiperidin-1-yl)-3-(3-fluoro-5-methylphenyl)quinolin-6-yl]pyridine-3-carbonitrile], the EC50 is reported as under 10 nM.
In the case of `N#Cc1cccc(-c2cc3c(N4CCC(N)CC4)c(-c4cc(Cl)cc(Cl)c4)nnc3cc2Cl)c1O` [1-11, 3-[4-(4-aminopiperidin-1-yl)-7-chloro-3-(3,5-dichlorophenyl)cinnolin-6-yl]-2-hydroxybenzonitrile], the EC50 is reported as under 10 nM.
Compound `Cc1cc(F)cc(-c2cnc3ccc(-c4cc(F)cc(C#N)c4O)cc3c2N2CC(CN3CC[C@@H](F)C3)C2)c1` [2-48, 5-fluoro-3-[3-(3-fluoro-5-methylphenyl)-4-(3-{[(3R)-3-fluoropyrrolidin-1-yl]methyl}azetidin-1-yl)quinolin-6-yl]-2-hydroxybenzonitrile] has an EC50 of under 10 nM.
`N#Cc1ccnc(-c2ccc3ncc(-c4cc(F)cc(F)c4)c(N4CC[C@H]5NCCO[C@@H]5C4)c3c2)c1F` (relative stereo) [2-261, 2-{4-[trans-octahydro-1H-pyrido[3,4-b]morpholin-6-yl]-3-(3,5-difluorophenyl)quinolin-6-yl}-3-fluoropyridine-4-carbonitrile] gave an EC50 of 10 to 100 nM.
Compound `COC(=O)Nc1c(F)cc(F)cc1-c1ccc2ncc(-c3cc(F)cc(OC)c3)c(N3CCC(N)CC3)c2c1` [2-165, methyl N-{2-[4-(4-aminopiperidin-1-yl)-3-(3-fluoro-5-methoxyphenyl)quinolin-6-yl]-4,6-difluorophenyl}carbamate] has an EC50 of under 10 nM.
Work on `COCOc1c(C#N)cccc1-c1ccc2ncc(-c3cc(F)cc(F)c3)c(N3CC[C@H](N)[C@H](OC)C3)c2c1` [2-62, 3-{4-[(3R,4S)-4-amino-3-methoxypiperidin-1-yl]-3-(3,5-difluorophenyl)quinolin-6-yl}-2-(methoxymethoxy)benzonitrile] yielded an EC50 of under 10 nM.
`CONC(=O)Nc1c(F)cc(F)cc1-c1ccc2ncc(-c3cc(F)cc(OC)c3)c(N3CCC(N)CC3)c2c1` [2-164, 1-{2-[4-(4-aminopiperidin-1-yl)-3-(3-fluoro-5-methoxyphenyl)quinolin-6-yl]-4,6-difluorophenyl}-3-methoxyurea] was tested, and the EC50 was under 10 nM.
With `Cc1cc(F)cc(-c2nnc3cc(Cl)c(-c4cc(F)cc(C(N)=O)c4)cc3c2N2CC[C@@H](N)[C@H](F)C2)c1` (relative stereo) [1-5, 3-{4-[trans-4-amino-3-fluoropiperidin-1-yl]-7-chloro-3-(3-fluoro-5-methylphenyl)cinnolin-6-yl}-5-fluorobenzamide] the EC50 was under 10 nM.
Compound `Cc1cc(F)cc(-c2cnc3ccc(-c4cc(F)cc(F)c4NC(=O)NOCC(F)(F)F)cc3c2N2CCC(N)CC2)c1` [2-233, 1-{2-[4-(4-aminopiperidin-1-yl)-3-(3-fluoro-5-methylphenyl)quinolin-6-yl]-4,6-difluorophenyl}-3-(2,2,2-trifluoroethoxy)urea] has an EC50 of under 10 nM.

— patent US10351547B2, “Somatostatin modulators and uses thereof” (priority 2016, dated 2019)
